Results: the NIST ThermoML archive (doi:10.1021/je9005344)
Numbers after ± are expanded uncertainties.

Assay: xn = mol fraction of the nth substance listed
Conditions: 101 kPa, Liquid; for speed of sound: Pulse-echo method; for mass density: Vibrating tube method

COCCO [2-methoxyethan-1-ol] + CCCCCCCCO
Conditions | mass density, 293.15 K [kg/m3] | mass density, 298.15 K [kg/m3] | mass density, 303.15 K [kg/m3] | mass density, 308.15 K [kg/m3] | speed of sound, 293.15 K [m/s] | speed of sound, 298.15 K [m/s] | speed of sound, 303.15 K [m/s] | speed of sound, 308.15 K [m/s]
x1 = 0.0535 | 828.636 ± 0.23 | 825.138 ± 0.23 | 821.625 ± 0.23 | 818.089 ± 0.23 | 1362 ± 1.2 | 1345 ± 1.2 | 1328.2 ± 1.2 | 1311.5 ± 1.2
x1 = 0.1073 | 832.242 ± 0.23 | 828.704 ± 0.23 | 825.153 ± 0.23 | 821.583 ± 0.23 | 1359.3 ± 1.2 | 1342.3 ± 1.2 | 1325.5 ± 1.2 | 1308.9 ± 1.2
x1 = 0.1407 | 834.668 ± 0.23 | 831.104 ± 0.23 | 827.528 ± 0.23 | 823.931 ± 0.23 | 1357.9 ± 1.2 | 1340.7 ± 1.2 | 1323.9 ± 1.2 | 1307.2 ± 1.2
x1 = 0.2002 | 839.135 ± 0.23 | 835.528 ± 0.23 | 831.905 ± 0.23 | 828.261 ± 0.23 | 1354.9 ± 1.2 | 1337.9 ± 1.2 | 1321.1 ± 1.2 | 1304.5 ± 1.2
x1 = 0.2659 | 844.444 ± 0.23 | 840.786 ± 0.23 | 837.111 ± 0.23 | 833.414 ± 0.23 | 1351.9 ± 1.2 | 1334.9 ± 1.2 | 1318.1 ± 1.2 | 1301.4 ± 1.2
x1 = 0.2973 | 847.294 ± 0.23 | 843.606 ± 0.23 | 839.904 ± 0.23 | 836.178 ± 0.23 | 1350.5 ± 1.2 | 1333.6 ± 1.2 | 1316.8 ± 1.2 | 1300.1 ± 1.2
x1 = 0.3559 | 852.613 ± 0.23 | 848.877 ± 0.23 | 845.122 ± 0.23 | 841.346 ± 0.23 | 1348 ± 1.2 | 1331.1 ± 1.2 | 1314.2 ± 1.2 | 1297.5 ± 1.2
x1 = 0.5233 | 870.97 ± 0.23 | 870.97 ± 0.23 | 863.148 ± 0.23 | 859.203 ± 0.23 | 1342.3 ± 1.2 | 1325.3 ± 1.2 | 1308.5 ± 1.2 | 1296.6 ± 1.2
x1 = 0.6059 | 881.954 ± 0.23 | 867.068 ± 0.23 | 873.942 ± 0.23 | 869.902 ± 0.23 | 1340.4 ± 1.2 | 1323.4 ± 1.2 | 1306.5 ± 1.2 | 1289.7 ± 1.2
x1 = 0.7126 | 898.662 ± 0.23 | 877.961 ± 0.23 | 890.382 ± 0.23 | 886.205 ± 0.23 | 1339.7 ± 1.2 | 1322.6 ± 1.2 | 1305.7 ± 1.2 | 1288.8 ± 1.2
x1 = 0.7903 | 912.569 ± 0.23 | 908.335 ± 0.24 | 904.076 ± 0.23 | 899.757 ± 0.23 | 1340.9 ± 1.2 | 1323.9 ± 1.2 | 1306.9 ± 1.2 | 1290 ± 1.2
x1 = 0.9202 | 942.675 ± 0.23 | 938.234 ± 0.23 | 933.772 ± 0.23 | 929.291 ± 0.23 | 1349.3 ± 1.2 | 1332.2 ± 1.2 | 1315 ± 1.2 | 1298 ± 1.2

COCCO [2-methoxyethan-1-ol] + CCCCCCO
Conditions | mass density, 293.15 K [kg/m3] | mass density, 298.15 K [kg/m3] | mass density, 303.15 K [kg/m3] | mass density, 308.15 K [kg/m3] | speed of sound, 293.15 K [m/s] | speed of sound, 298.15 K [m/s] | speed of sound, 303.15 K [m/s] | speed of sound, 308.15 K [m/s]
x1 = 0.0538 | 822.792 ± 0.23 | 819.173 ± 0.23 | 815.536 ± 0.23 | 811.869 ± 0.24 | 1319.2 ± 1.2 | 1302.3 ± 1.2 | 1285.5 ± 1.2 | 1268.9 ± 1.2
x1 = 0.1042 | 828.127 ± 0.23 | 824.464 ± 0.23 | 820.781 ± 0.23 | 817.068 ± 0.23 | 1318.3 ± 1.2 | 1301.4 ± 1.2 | 1284.6 ± 1.2 | 1267.9 ± 1.2
x1 = 0.1509 | 831.771 ± 0.23 | 828.075 ± 0.23 | 824.358 ± 0.23 | 820.611 ± 0.23 | 1317.7 ± 1.2 | 1300.8 ± 1.2 | 1284 ± 1.2 | 1267.4 ± 1.2
x1 = 0.2055 | 837.788 ± 0.23 | 834.043 ± 0.23 | 830.27 ± 0.23 | 826.473 ± 0.23 | 1317.1 ± 1.2 | 1300.2 ± 1.2 | 1283.4 ± 1.2 | 1266.8 ± 1.2
x1 = 0.2405 | 841.087 ± 0.23 | 837.314 ± 0.23 | 833.515 ± 0.23 | 829.687 ± 0.23 | 1316.7 ± 1.2 | 1299.8 ± 1.2 | 1283.1 ± 1.2 | 1266.4 ± 1.2
x1 = 0.2987 | 847.639 ± 0.23 | 843.81 ± 0.23 | 839.961 ± 0.23 | 836.084 ± 0.23 | 1316.3 ± 1.2 | 1299.5 ± 1.2 | 1282.7 ± 1.2 | –
x1 = 0.4088 | 860.712 ± 0.23 | 856.785 ± 0.23 | 852.828 ± 0.23 | 848.853 ± 0.23 | 1317.3 ± 1.2 | 1300.5 ± 1.2 | 1283.6 ± 1.2 | 1266.9 ± 1.2
x1 = 0.5134 | 874.132 ± 0.23 | 870.1 ± 0.23 | 866.048 ± 0.23 | 861.965 ± 0.23 | 1318.6 ± 1.2 | 1301.7 ± 1.2 | 1284.8 ± 1.2 | 1268.1 ± 1.2
x1 = 0.5991 | 886.614 ± 0.23 | 882.495 ± 0.23 | 878.355 ± 0.23 | 874.185 ± 0.23 | 1321.2 ± 1.2 | 1304.2 ± 1.2 | 1287.3 ± 1.2 | 1270.6 ± 1.2
x1 = 0.6915 | 901.59 ± 0.23 | 897.37 ± 0.23 | 893.13 ± 0.23 | 888.857 ± 0.23 | 1325.9 ± 1.2 | 1308.8 ± 1.2 | 1291.9 ± 1.2 | 1275 ± 1.2
x1 = 0.805 | 922.045 ± 0.23 | 917.699 ± 0.23 | 913.334 ± 0.23 | 908.936 ± 0.23 | 1334.2 ± 1.2 | 1317.1 ± 1.2 | 1300.1 ± 1.2 | 1283.2 ± 1.2
x1 = 0.9039 | 942.54 ± 0.23 | 938.079 ± 0.23 | 933.591 ± 0.23 | 929.076 ± 0.23 | 1345 ± 1.2 | 1327.9 ± 1.2 | 1310.8 ± 1.2 | 1293.7 ± 1.2
